Assay results published in US6933308B2 (Bristol-Myers Squibb Company, priority 2002, dated 2005).

Key:
[1] = system: KCNQ channels; assay: Thallium flux assay for KCNQ channel openers; type: cell-based; settings: HEK-293 cells stably transfected with a KCNQ family member; for Min conc. response: minimal active concentration: lowest concentration giving signal >= 4 SD of negative controls; for EC50: thallium flux, 10 point concentration series
Experimental: Thallium Flux Assay for KCNQ Channel Openers.
The thallium assay is a modification of that published by Weaver and is referenced in its entirety (Weaver, C. D. WO 02/31508, 2002).
Approximately 20,000 cells/well of an HEK-293 cell line stably transfected with one of the members of the KCNQ family were plated into clear-bottom, black-walled, poly-D-lysine coated, 384 well assay plates in 20 μl/well of low chloride plating medium. Low chloride plating medium was composed of the following: sodium gluconate, 109 mM; potassium gluconate, 5.4 mM; hemi-calcium gluconate, 3.6 mM; magnesium sulfate, 0.8 mM; sodium bicarbonate, 26.2 mM; sodium phosphate monobasic, 1.2 mM; glutamine, 2 mM; glucose, 5 mM; 4-(2-hydroxyethyl)-1-piperazineethanesulfonic acid (HEPES) (pH 7.3) 10 mM, MEM vitamin solution (10× concentration of vitamins, Gibco/LifeTechnologies 11120-052) and MEM amino acid solution (1× concentration of amino acids, Gibco/LifeTechnologies 11130-051).
Following overnight incubation in a 5% CO2 incubator at 37° C., the cells in the plates were loaded with 20 μl/well of a dye loading solution containing the commercially available thallium-sensitive fluorescent dye BTC-AM, the acetomethoxy ester of BTC (see U.S. Pat. No. 5,501,980) (2 μM) and pluronic acid F-127 (Molecular Probes P 6867) (0.02% w/v) in chloride free assay buffer. Chloride free assay buffer was composed of the following: sodium gluconate, 140 mM; potassium gluconate, 2.5 mM; hemi-calcium gluconate, 6 mM; hemi-magnesium gluconate, 2 mM; glucose, 5 mM; HEPES (pH 7.3), 10 mM.
Following incubation in the dye loading solution for from 45-90 min at room temperature, the dye loading solution was removed by aspiration and replaced with 40 μl/well of chloride free assay buffer.
Prior to addition to cell plates, test compound and standard compounds were dissolved in DMSO to 3 mM concentration. Compounds were then diluted from the 3 mM stock to 100-fold over the final assay concentration in DMSO. Finally, compounds in DMSO were diluted from 100-fold over the final assay concentration to 5-fold over the final assay concentration in chloride free assay buffer.
Ten μl/well of compounds at 5-fold over the final assay concentration were then added to the cell plates. This represents a 1:5 dilution, yielding the final test concentration. The wells used for test compounds were A1-P20. Wells A21-P22 contained a standard opener and a maximally efficacious concentration (positive control). Wells A23-P24 contained chloride free assay buffer containing 1% DMSO (negative control).
Following addition of test compounds, the plates were loaded onto the Molecular Devices FLIPR. The 488 nm line of the argon laser was used to excite the BTC and the emission filter was a 540(+/−30) nm. Images were collected at 1 Hz. Ten seconds of baseline were collected and then the FLIPR was used to add 13 μl/well of a stimulus buffer composed of 7.5 mM Tl2SO4 in chloride free assay buffer. Images were collected for an additional 60 seconds.
For data analysis, the amplitude of the average of the negative controls was subtracted from all wells. The amplitudes of the test compounds were then compared to the value of four standard deviations of the negative control wells. The lowest concentration of a test compound sufficient to generate a signal amplitude greater than or equal to four standard deviations from the amplitude of the negative controls was defined as the minimal active concentration.
For generating EC50 values, compounds were serially diluted in 1:3 volume increments to produce a 10 point concentration series. EC50 values were calculated by fitting the resulting amplitudes to a single-site logistic equation. EC50 was defined as the concentration of test compound required to yield 50% of the maximal response. Maximal response (Maximal opening) was the largest signal amplitude divided by the negative control amplitude generated by any concentration of a test compound. […]

[2] = biological target: T1, mKCNQ2 channels (Mus musculus, UniProt Q9Z351); assay: KCNQ whole-cell patch-clamp; type: cell-based; settings: for verified in a patch-clamp assay measuring the effect of compounds on the current of KCNQ channels: HEK 293 cells expressing mKCNQ2; for EC50: HEK 293 stable cell line expressing mKCNQ2, steady-state current at end of 600 ms step from holding potential -80 mV
T1 construct: expressed in transfected cells
Experimental: Examples 8 and 11 were verified in a patch-clamp assay measuring the effect of compounds on the current of KCNQ channels.
KCNQ Patch-clamp. Whole-cell patch-clamp recordings were made from an HEK 293 stable cell line expressing mKCNQ2 channels, maintained in culture for 1-2 days. Patch pipettes had initial resistances of 2.5-4 MΩ. Currents were recorded with an EPC-9 amplifier (HEKA, Lambrecht, Germany) controlled with software (Pulse, HEKA) run on a standard lab PC. Series resistance compensation was used during current recording, and set at 80%. The series resistance (R) and cell capacitance (C) were determined electronically by subtracting the capacitive currents at the onset and offset of a 5 mV voltage step. The cancellation of whole-cell capacitive transients was virtually complete in all cells. Analog current signals were low-pass filtered at 2.9 kHz using a four-pole Bessel filter −3 dB) and stored on a local network server computer at a sampling rate of 1.5 kHz. All recordings were performed at room temperature (20-22° C.). The pipette solution contained (mM):KCl, 150; CaCl2, 2.5; EGTA, 5; MgCl2, 1; HEPES, 10; pH to 7.3 with KOH, and Osmolality of 290-300 mOsm. The extracellular solution contained (mM): NaCl, 140; KCl, 2.5; CaCl2, 2.5; MgCl2, 1; glucose, 10; HEPES, 10; pH to 7.3 with NaOH, and Osmolality of […].
Concentration response data were generated by measuring the difference in the steady-state amplitude of current in the presence of compound at the end of a 600 ms voltage-clamp step from a holding potential of −80 mV. The concentration-response data were fitted with Hill-type equations: I=Imax/(1+EC50/[A]^nH), where I is the steady-state current at a given concentration of agonist [A]; and Imax, EC50 and nH are parameters estimated from the curve fit. In some cases the concentration-response data were fitted with equations consisting of the sum of two Hill-type components. Current-voltage (I/V) relationships for agonist-evoked currents were obtained by performing 600 ms voltage steps (−110 mV to +40 mV) in the absence and presence of agonist.

SMILES | EC50 [1] [µM] | verified in a patch-clamp assay measuring the effect of compounds on the current of KCNQ channels [2] | EC50 [2] [µM] | Min conc. response [1] [µM]
CC(NC(=O)c1sc(CCN2CCOCC2)nc1C(F)(F)F)c1cccc(-c2cccnc2)c1 (centres unmarked) [Example 8] | 1 to 20 | verified | – | 10
CCCN(CC1CC1)CC(O)c1nc(C(F)(F)F)c(C(=O)NC(C)c2cccc(C(F)(F)F)c2)s1 (centres unmarked) [Example 60, 2-[2-[(cyclopropylmethyl)propylamino]-1-hydroxyethyl]-4-(trifluoromethyl)-N-[1-[3-(trifluoromethyl)phenyl]ethyl]-5-thiazolecarboxamide] | – | – | – | 3
CC(=O)N1CCN(CC(O)c2nc(C(F)(F)F)c(C(=O)NC(C)c3cccc(C(F)(F)F)c3)s2)CC1 (centres unmarked) [Example 61, 2-[2-(4-acetyl-1-piperazinyl)-1-hydroxyethyl]-4-(trifluoromethyl)-N-[1-[3-(trifluoromethyl)phenyl]ethyl]-5-thiazolecarboxamide] | – | – | – | 10

Now from value to compound, other results behind:

EC50 [1] [µM] | verified in a patch-clamp assay measuring the effect of compounds on the current of KCNQ channels [2] | EC50 [2] [µM] | SMILES | Min conc. response [1] [µM]
1 to 20 | verified | – | C[C@H](NC(=O)c1sc(CCN(C)Cc2ccco2)nc1C(F)(F)F)c1cccc(N2CCOCC2)c1 [Example 11, 2-[2-[(2-furanylmethyl)methylamino]ethyl]-N-[1-[3-(4-morpholinyl)phenyl]ethyl]-4-(trifluoromethyl)-5-thiazolecarboxamide] | 30
0.05 to 1 | – | 3.56 | CCN(CC)CCc1nc(C(F)(F)F)c(C(=O)NC(C)c2cccc(OC(F)(F)F)c2)s1 (centres unmarked) [Example 15] | 0.3
0.05 to 1 | – | 1.23 | CC(NC(=O)c1sc(CCN2CCSCC2)nc1C(F)(F)F)c1cccc(C(F)(F)F)c1 (centres unmarked) [Example 18, 2-[2-(4-thiomorpholinyl)ethyl]-4-(trifluoromethyl)-N-[1-[3-(trifluoromethyl)phenyl]ethyl]-5-thiazolecarboxamide] | 3
